Laboratory results from patent US8536183B2, “3-pyridylcarbonyl-piperazinylsulfonyl derivatives” (Convergence Pharmaceuticals Limited, priority 2008, dated 2013).
Counter-ions that a name gives are not always drawn.

The molecules below were run against T1, hCaV2.2 (Homo sapiens, UniProt Q00975) (assay: hCaV2.2 assay, IonWorks planar array electrophysiology in stably transfected HEK293 cells). Conditions: current elicited by the 1st depolarising pulse inhibited by 50%; HEK293 cells expressing human CaV2.2 alpha/beta3/alpha2delta1; read-out: mean pIC50 (tonic pIC50) (converted).
T1 construct: expressed in transfected cells; plasmids pCIN5-hCaV2.2, pCIH-hCaV β3, pCIP-α2δ1
Format: cell-based
Description: Compounds of the invention may be tested for in vitro biological activity in the hCaV2.2 assay in accordance with the following studies:
Stable cell lines expressing the human CaV2.2 α (als) subunit, along with the human […] and α2δ1 auxiliary subunits were created following sequential transfection and selection of human embryonic kidney (HEK293) cells. HEK293 cells were cultured in Dulbecco's modified Eagles media/F12 media (Invitrogen, Cat #041-95750V) containing 10% foetal bovine serum, with added L-glutamine (2 mM; Invitrogen, Cat #25030-024) and non-essential amino acids (5%; Invitrogen, Cat #11140-035). Initially HEK293 cells were transfected with two plasmid vectors for expression of the hCaV2.2 α subunit (pCIN5-hCaV2.2 which carries a neomycin resistance marker) and the hCaV β3 subunit (pCIH-hCaV β3 which carries a hygromycin resistance marker). Clonal cell lines were isolated following selection in media supplemented with 0.4 mg ml^−1 Geneticin G418 (Invitrogen, Cat #10131-027) and 0.1 mg ml^1 hygromycin (Invitrogen, Cat #10687-010). These clonal cell lines were assessed for Cav2.2α/β3-mediated current expression using the IonWorks planar array electrophysiology technology (described below). A clonal line was identified that gave a reasonable level of functional Cav2.2α/β3 current expression. This cell line was transfected with a plasmid vector for expression of the human […] subunit (pCIP-α2δ1 which carries a puromycin resistance marker) and clonal cell lines isolated following selection in media containing 0.62 μg ml^−1 puromycin (Sigma, Cat #P-7255), in addition to 0.4 mg ml^−1 Geneticin G418 and 0.1 mg ml^−1 hygromycin. Several cell lines were identified that gave robust levels of Cav2.2α/β3/α2δ1-mediated current expression and one of these was selected for compound profiling. Expression of all three subunits within this cell line was continuously maintained by the inclusion of G418 (0.4 mg ml^−1), hygromycin (0.1 mg ml^−1) and puromycin (0.62 μg ml^−1). Cells were maintained at 37° C. in a humidified environment containing 5% CO2 in air. Cells were liberated from the T175 culture flasks for passage and harvesting using TrpLE (Invitrogen, Cat #12604-013).
Cells were grown to 30-60% confluence in T175 flasks and maintained at 30° C. for 24 hrs prior to recording. Cells were lifted by removing the growth media, washing with Ca^2+ free PBS (Invitrogen, Cat #14190-094) and incubating with 3 ml of warmed (37° C.) TrpLE (Invitrogen, Cat #12604-013) for 6 minutes. Lifted cells were suspended in 10 ml of extracellular buffer. Cell suspension was then placed into a 15 ml tube and centrifuged for 2 minutes at 700 rpm. After centrifugation, the supernatant was removed and the cell pellet was resuspended in 4.5 ml of extracellular solution.
Currents were recorded at room temperature (21-23° C.) using the IonWorks planar array electrophysiology technology (Molecular Devices Corp.). Stimulation protocols and data acquisition were carried out using a microcomputer (Dell Pentium 4). In order to determine planar electrode hole resistances (Rp), a 10 mV, 160 ms potential difference was applied across each hole. These measurements were performed before cell addition. After cell addition a seal test was performed prior to antibiotic (amphotericin) circulation to achieve intracellular access. Leak subtraction was conducted in all experiments by applying a 160 ms hyperpolarizing (10 mV) prepulse 200 ms before the test pulses to measure leak conductance. Test pulses stepping from the holding potential (VH) of −90 mV to +10 mV were applied for 20 ms and repeated 10 times at a frequency of 10 Hz. In all experiments, the test pulse protocol was performed in the absence (pre-read) and presence (post-read) of a compound. Pre- and post-reads were separated by a compound addition followed by a 3-3.5 min incubation.
The intracellular solution contained the following (in mM): K-gluconate 120, KCl 20 mM, MgCl2 5, EGTA 5, HEPES 10, adjusted to pH 7.3. […]

T1 sequence (Q00975 whole entry): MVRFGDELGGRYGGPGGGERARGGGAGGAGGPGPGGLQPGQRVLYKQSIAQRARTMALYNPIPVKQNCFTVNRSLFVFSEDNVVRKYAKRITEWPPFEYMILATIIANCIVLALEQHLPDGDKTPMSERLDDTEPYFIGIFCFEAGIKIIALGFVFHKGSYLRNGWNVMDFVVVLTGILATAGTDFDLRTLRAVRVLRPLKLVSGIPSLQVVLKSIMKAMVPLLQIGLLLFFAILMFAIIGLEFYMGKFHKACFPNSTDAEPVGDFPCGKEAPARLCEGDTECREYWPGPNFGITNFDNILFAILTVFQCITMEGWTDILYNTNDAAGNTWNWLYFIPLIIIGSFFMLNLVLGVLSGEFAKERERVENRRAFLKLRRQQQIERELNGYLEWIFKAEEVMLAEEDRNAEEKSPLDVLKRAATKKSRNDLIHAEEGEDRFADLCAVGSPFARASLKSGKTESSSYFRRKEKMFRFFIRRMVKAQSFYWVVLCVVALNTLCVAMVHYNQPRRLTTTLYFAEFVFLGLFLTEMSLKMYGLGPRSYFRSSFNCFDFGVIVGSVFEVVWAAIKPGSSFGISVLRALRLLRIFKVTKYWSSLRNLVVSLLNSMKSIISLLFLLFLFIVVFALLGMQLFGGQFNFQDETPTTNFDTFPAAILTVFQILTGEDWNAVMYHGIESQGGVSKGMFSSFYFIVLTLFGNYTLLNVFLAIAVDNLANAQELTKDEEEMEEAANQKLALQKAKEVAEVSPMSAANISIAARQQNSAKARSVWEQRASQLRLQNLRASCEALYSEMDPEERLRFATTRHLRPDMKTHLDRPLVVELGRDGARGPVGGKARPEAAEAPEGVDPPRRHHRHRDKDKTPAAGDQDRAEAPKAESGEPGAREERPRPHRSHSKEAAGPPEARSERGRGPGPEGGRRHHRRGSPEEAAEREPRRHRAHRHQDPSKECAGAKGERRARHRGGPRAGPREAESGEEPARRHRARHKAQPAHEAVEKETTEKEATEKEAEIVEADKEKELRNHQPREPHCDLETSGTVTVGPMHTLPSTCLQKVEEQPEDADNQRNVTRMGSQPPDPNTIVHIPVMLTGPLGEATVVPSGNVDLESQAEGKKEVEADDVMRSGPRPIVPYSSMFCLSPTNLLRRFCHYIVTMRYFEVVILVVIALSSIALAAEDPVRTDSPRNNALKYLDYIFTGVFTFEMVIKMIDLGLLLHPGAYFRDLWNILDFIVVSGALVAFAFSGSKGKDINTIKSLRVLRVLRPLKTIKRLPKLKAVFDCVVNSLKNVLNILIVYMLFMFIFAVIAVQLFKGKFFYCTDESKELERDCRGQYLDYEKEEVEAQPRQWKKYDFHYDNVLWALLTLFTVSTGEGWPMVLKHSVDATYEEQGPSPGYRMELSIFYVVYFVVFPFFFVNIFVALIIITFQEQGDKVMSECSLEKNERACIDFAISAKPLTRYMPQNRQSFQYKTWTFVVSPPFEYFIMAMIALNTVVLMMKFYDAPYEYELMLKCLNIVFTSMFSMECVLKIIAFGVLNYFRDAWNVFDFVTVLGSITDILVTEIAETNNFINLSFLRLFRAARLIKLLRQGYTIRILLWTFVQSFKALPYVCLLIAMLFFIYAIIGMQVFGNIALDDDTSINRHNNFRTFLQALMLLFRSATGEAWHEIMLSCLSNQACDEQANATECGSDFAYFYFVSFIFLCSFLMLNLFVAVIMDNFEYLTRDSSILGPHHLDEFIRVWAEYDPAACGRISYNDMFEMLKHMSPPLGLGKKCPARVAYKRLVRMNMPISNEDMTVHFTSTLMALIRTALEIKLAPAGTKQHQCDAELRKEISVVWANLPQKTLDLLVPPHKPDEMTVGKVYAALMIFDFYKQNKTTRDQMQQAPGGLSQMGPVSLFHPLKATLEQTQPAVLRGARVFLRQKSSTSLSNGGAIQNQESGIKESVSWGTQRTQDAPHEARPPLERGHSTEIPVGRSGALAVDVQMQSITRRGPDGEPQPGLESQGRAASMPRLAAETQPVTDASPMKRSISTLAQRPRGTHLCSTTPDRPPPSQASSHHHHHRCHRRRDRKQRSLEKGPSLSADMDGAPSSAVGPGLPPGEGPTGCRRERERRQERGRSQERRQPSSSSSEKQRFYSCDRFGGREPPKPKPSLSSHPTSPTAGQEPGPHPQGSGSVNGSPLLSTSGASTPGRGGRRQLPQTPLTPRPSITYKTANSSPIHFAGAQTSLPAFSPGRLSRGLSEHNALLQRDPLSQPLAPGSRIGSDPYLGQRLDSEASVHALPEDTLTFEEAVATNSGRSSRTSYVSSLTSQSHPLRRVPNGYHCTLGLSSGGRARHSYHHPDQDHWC

Row | IC50 [µM] | Compound
1 | ≥ 31.6 | C[C@H]1CN(S(=O)(=O)c2ccc(C(F)(F)F)cc2)CCN1C(=O)c1ccc(C#N)nc1 [Example 13, 5-[((2S)-2-Methyl-4-{[4-(trifluoromethyl)phenyl]sulfonyl}-1-piperazinyl)carbonyl]-2-pyridinecarbonitrile]
2 | ≥ 31.6 | Cc1ccc(C(=O)N2CCN(S(=O)(=O)c3cc(C(F)(F)F)ccc3C)C[C@@H]2C)cn1 [Example 59, (2S)-2-methyl-1-[(6-methyl-3-pyridinyl)carbonyl]-4-{[2-methyl-5-(trifluoromethyl)phenyl]sulfon-yl}piperazine]
3 | ≥ 31.6 | Cc1ncccc1C(=O)N1CCN(S(=O)(=O)c2ccc(OC(F)(F)F)cc2)C[C@H]1C [Example 58, (2R)-2-methyl-1-[(2-methyl-3-pyridinyl)carbonyl]-4-({4-[(trifluoromethyl)oxy]phenyl}sulfonyl)piperazine]
4 | ≥ 10 | C[C@H]1CN(S(=O)(=O)c2ccc(C(F)(F)F)cc2)CCN1C(=O)c1ccc(N2CCOCC2)nc1 [Example 42, 4-{5-[((2S)-2-Methyl-4-{[4-(trifluoromethyl)phenyl]sulfonyl}-1-piperazinyl)carbonyl]-2-pyridinyl}morpholine hydrochloride]
5 | ≥ 31.6 | Cc1ccc(C(=O)N2CCN(S(=O)(=O)c3ccc(C#N)cc3C)[C@@H](C)C2)cn1 [Example 52, 3-methyl-4-({(2S)-2-methyl-4-[(6-methyl-3-pyridinyl)carbonyl]-1-piperazinyl}sulfonyl)benzonitrile hydrochloride]
6 | ≥ 10 | Cc1nc(N2CCOCC2)ccc1C(=O)N1CCN(S(=O)(=O)c2ccc(C(F)(F)F)cc2)C[C@@H]1C [Example 34, 4-{6-Methyl-5-[((2S)-2-methyl-4-{[4-(trifluoromethyl)phenyl]sulfonyl}-1-piperazinyl)carbonyl]-2-pyridinyl}morpholine hydrochloride]
7 | ≥ 31.6 | O=C(c1ccc(N2CCCC2)nc1)N1CCN(S(=O)(=O)c2ccc(C(F)(F)F)cc2)CC1 [Example 69, 1-{[6-(1-pyrrolidinyl)-3-pyridinyl]carbonyl}-4-{[4-(trifluoromethyl)phenyl]sulfon-yl}piperazine]
8 | ≥ 10 | C[C@H]1CN(S(=O)(=O)c2ccc(C(F)(F)F)cc2)CCN1C(=O)c1ccc(N2CCC2)nc1 [Example 45, (2S)-1-{[6-(1-Azetidinyl)-3-pyridinyl]carbonyl}-2-methyl-4-{[4-(trifluoromethyl)phenyl]sulfonyl}piperazine hydrochloride]
9 | ≥ 31.6 | Cc1ccc(C(=O)N2CCN(S(=O)(=O)c3ccc(C(F)(F)F)cc3)C[C@@H]2C)cn1 [Example 1, (2S)-2-Methyl-1-[(6-methyl-3-pyridinyl)carbonyl]-4-{[4-(trifluoromethyl)phenyl]sulfonyl}piperazine]
10 | ≥ 10 | C[C@H]1CN(S(=O)(=O)c2ccc(C(F)(F)F)cc2)CCN1C(=O)c1ccc(N(C)C)nc1 [Example 41, N,N-Dimethyl-5-[((2S)-2-methyl-4-{[4-(trifluoromethyl)phenyl]sulfonyl}-1-piperazinyl)carbonyl]-2-pyridinamine hydrochloride]
11 | ≥ 31.6 | CN(C)c1ccc(C(=O)N2CCN(S(=O)(=O)c3ccc(C(F)(F)F)cc3)CC2)cn1 [Example 57, N,N-dimethyl-5-[(4-{[4-(trifluoromethyl)phenyl]sulfonyl}-1-piperazinyl)carbonyl]-2-pyridinamine]
12 | ≥ 31.6 | Cc1ccncc1C(=O)N1CCN(S(=O)(=O)c2ccc(C(F)(F)F)cc2)C[C@@H]1C [Example 18, (2S)-2-Methyl-1-[(4-methyl-3-pyridinyl)carbonyl]-4-{[4-(trifluoromethyl)phenyl]sulfonyl}piperazine]
13 | ≥ 31.6 | Cc1ncccc1C(=O)N1CCN(S(=O)(=O)c2ccc(OC(F)(F)F)cc2)C[C@H]1C [Example 65, (2R)-2-methyl-1-[(2-methyl-3-pyridinyl)carbonyl]-4-({4-[(trifluoromethyl)oxy]phenyl}sulfonyl)piperazine]
14 | ≥ 31.6 | C[C@H]1CN(C(=O)c2ccc(N3CCOCC3)nc2)CCN1S(=O)(=O)c1ccc(Cl)cc1 [Example 7, 4-[5-({(3S)-4-[(4-Chlorophenyl)sulfonyl]-3-methyl-1-piperazinyl}carbonyl)-2-pyridinyl]morpholine]
15 | ≥ 31.6 | Cc1nc(N2CCC2)ccc1C(=O)N1CCN(S(=O)(=O)c2ccc(C(F)(F)F)cc2)C[C@@H]1C [Example 39, (2S)-1-{[6-(1-Azetidinyl)-2-methyl-3-pyridinyl]carbonyl}-2-methyl-4-{[4-(trifluoromethyl)phenyl]sulfonyl}piperazine hydrochloride]
16 | ≥ 31.6 | Cc1ccc(C(=O)N2CCN(S(=O)(=O)c3ccc(C(F)(F)F)cc3)C[C@H]2C)cn1 [Example 19, (2R)-2-methyl-1-[(6-methyl-3-pyridinyl)carbonyl]-4-{[4-(trifluoromethyl)phenyl]sulfonyl}piperazine formic acid salt (1:1)]
17 | ≥ 10 | CNc1ccc(C(=O)N2CCN(S(=O)(=O)c3ccc(C(F)(F)F)cc3)C[C@@H]2C)cn1 [Example 44, Methyl-5-[((2S)-2-methyl-4-{[4-(trifluoromethyl)phenyl]sulfonyl}-1-piperazinyl)carbonyl]-2-pyridinamine hydrochloride]
18 | ≥ 31.6 | Cc1ccc(C(=O)N2CCN(S(=O)(=O)c3ccc(C#N)cc3C)C[C@@H]2C)c(C)n1 [Example 67, 4-({(3S)-4-[(2,6-dimethyl-3-pyridinyl)carbonyl]-3-methyl-1-piperazinyl}sulfonyl)-3-methylbenzonitrile]
19 | ≥ 10 | Cc1nc(Cl)ccc1C(=O)N1CCN(S(=O)(=O)c2ccc(C(F)(F)F)cc2)C[C@@H]1C [Example 24, (2S)-1-[(6-Chloro-2-methyl-3-pyridinyl)carbonyl]-2-methyl-4-{[4-(trifluoromethyl)phenyl]sulfonyl}piperazine]
20 | ≥ 31.6 | O=C(c1cccnc1)N1CCN(S(=O)(=O)c2ccc(C(F)(F)F)cc2)CC1 [Example 3, 1-(3-Pyridinylcarbonyl)-4-{[4-(trifluoromethyl)phenyl]sulfonyl}piperazine]
21 | ≥ 31.6 | Cc1ccc(C(=O)N2CCN(S(=O)(=O)c3ccc(C(F)(F)F)cc3C)CC2)cn1 [Example 74, 1-[(6-methyl-3-pyridinyl)carbonyl]-4-{[2-methyl-4-(trifluoromethyl)phenyl]sulfonyl}piperazine]
22 | ≥ 31.6 | Nc1ccc(C(=O)N2CCN(S(=O)(=O)c3ccc(C(F)(F)F)cc3)CC2)cn1 [Example 66, 5-[(4-{[4-(trifluoromethyl)phenyl]sulfon-yl}-1-piperazinyl)carbonyl]-2-pyridinamine]
23 | ≥ 31.6 | Cc1ncccc1C(=O)N1CCN(S(=O)(=O)c2ccc(C(F)(F)F)cc2)[C@@H](C)C1 [Example 12, (2S)-2-Methyl-4-[(2-methyl-3-pyridinyl)carbonyl]-1-{[4-(trifluoromethyl)phenyl]sulfonyl}piperazine formic acid salt]
24 | ≥ 31.6 | Cc1ccc(C(=O)N2CCN(S(=O)(=O)c3cc(C(F)(F)F)ccc3C)CC2)cn1 [Example 61, 1-[(6-methyl-3-pyridinyl)carbonyl]-4-{[2-methyl-5-(trifluoromethyl)phenyl]sulfon-yl}piperazine]
25 | ≥ 31.6 | Cc1ncccc1C(=O)N1CCN(S(=O)(=O)c2ccc(OC(F)(F)F)cc2)C[C@@H]1C [Example 64, (2S)-2-methyl-1-[(2-methyl-3-pyridinyl)carbonyl]-4-({4-[(trifluoromethyl)oxy]phenyl}sulfonyl)piperazine]
